Results taken from patent US9175305B2, “Mutant hydroxyphenylpyruvate dioxygenase polypeptides and methods of use” (Syngenta Participations AG, priority 2009, dated 2015).
Residue numbers refer to the chain shown, from its start. In names and notes the source's numbering stands. Several values for one entry are separate records, joined by “and”; a condition that tells them apart may be missing. Equal entries are not always repeated. Where two headings read alike, the source gives them in different places.

Tests used:
HPPD SEQ ID NO:18 = HPPD SEQ ID NO:18 (Avena sativa, UniProt A0ACD5V6K6, DEL109-109/I285T); assay: biochemical; format: binding; conditions: for koff: read-out: koff (k1)
Sequence of HPPD SEQ ID NO:18 (A0ACD5V6K6 entry or part of it DEL109-109/I285T): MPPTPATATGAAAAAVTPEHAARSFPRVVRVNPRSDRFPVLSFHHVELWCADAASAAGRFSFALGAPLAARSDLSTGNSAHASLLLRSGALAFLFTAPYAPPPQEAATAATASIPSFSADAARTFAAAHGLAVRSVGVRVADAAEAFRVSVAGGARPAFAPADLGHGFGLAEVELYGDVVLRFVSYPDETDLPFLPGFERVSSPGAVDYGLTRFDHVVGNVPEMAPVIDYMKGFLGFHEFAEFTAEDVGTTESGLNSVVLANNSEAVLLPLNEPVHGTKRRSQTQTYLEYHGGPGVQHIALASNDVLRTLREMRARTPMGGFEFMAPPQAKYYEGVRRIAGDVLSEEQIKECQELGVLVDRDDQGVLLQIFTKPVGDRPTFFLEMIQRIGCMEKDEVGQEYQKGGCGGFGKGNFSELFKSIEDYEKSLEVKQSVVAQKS
Description: (§1) On rates (governed by an association rate constant, kon) for the formation of the enzyme: inhibitor complexes, EI and off rates (governed by a dissociation rate constant, koff) were determined by methods known in the art and essentially as described in Hawkes et al. (2001) Proc. Bright. Crop. Prot. Conf. Weeds, 2:563-568 and in PCT Patent App. Pub. No. WO 02/46387).
(§2) For example, on rates were measured by, at zero time, adding ˜60 pmoles HPPD to 50 mM BisTrisPropane buffer at pH7.0 and at 25° C. containing 25 mM Na ascorbate, 4 μg/ml bovine catalase (Sigma, St. Louis, Mo.) and an excess (˜300 pmoles) of ^14C inhibitor in a total assay volume of 425 μl and, at various time points (0-180 s), quenching the radiolabel binding reaction by addition and rapid mixing of 100 μl ‘cold’ 1 mM structure A. Protein samples quenched at different times were then exchanged into 50 mM BisTrisPropane buffer at pH 7.0 containing 0.1M KCl by rapid chromatography down a NAP5 G25 Sephadex column (GE Healthcare Ltd, Buckinghamshire UK) and the amount of ^14C bound to protein fractions quantified in Optiphase scintillant using a Tri-Carb 2900TR scintillation counter (Perkin Elmer, Wellesley, Mass.). The data were fit according to the scheme below in order to derive the value of the apparent second order rate constant, k2, governing the association rate of enzyme and radiolabelled inhibitor. A range of enzyme and inhibitor concentrations were used. […] Further example methods are described in PCT Patent App. Pub. No. WO 02/46387.
(§3) Off rates (k1 in the scheme below) were derived from exchange rate studies where either the test inhibitor, I, or its exchange partner, J were radiolabelled and the data fit according to the scheme below. As noted in Hawkes et al. (2001) Proc. Bright. Crop. Prot. Conf.
(§4) After 30 minutes the exchange reaction was initiated with addition of 100 μl 1 mM ‘cold’ structure A with thorough mixing, and, immediately, 150 μl were withdrawn and loaded onto a NAP5 column, the protein exchanged into 50 mM BisTrisPropane buffer at pH 7.0 containing 0.1M KCl by rapid (<2 min) chromatography down a NAP5 G25 Sephadex column (GE Healthcare Ltd, Buckinghamshire UK) and the amount of ^14C bound to protein measured by Optiphase scintillant using a Tri-Carb 2900TR scintillation counter (Perkin Elmer, Wellesley, Mass.). Further aliquots were removed and measured in the same way at various times over minutes or hours as required in order to determine the exchange kinetics.
(§5) After 30 minutes the reaction vessel was transferred to ice. After a further 10 minutes at ice temperature the exchange reaction was initiated by addition of 100 μl 1 mM Structure A, with thorough mixing, and 150 μl was withdrawn and loaded onto a NAP5 column in a cold room at ˜5-8° C. in order to quantify the amount of radiolabel remaining bound to the protein at various time from the start of exchange at ice temperature.
(§6) Off rates (k1) of HPPD inhibitors that are not available radiolabelled or that present other measurement problems (for example high levels of background non-specific protein-binding which can be measured as radiolabel binding that persists in the presence of high concentrations of ‘cold’ inhibitor) may be measured indirectly. […] Exemplary methods are also described in PCT Patent App. Pub. No. WO 02/46387.

HPPD SEQ ID NO:14 = HPPD SEQ ID NO:14 (Avena sativa, UniProt A0ACD5V6K6, DEL109-109); assay: biochemical; format: binding; conditions: for Kd/Km ratio: HPPD SEQ ID NO:14
Sequence of HPPD SEQ ID NO:14 (A0ACD5V6K6 entry or part of it DEL109-109): as the sequence (A0ACD5V6K6 entry or part of it DEL109-109/I285T) above, with T284I counted along it
Description: as §1, §2, §3, §4, §5, §6

HPPD SEQ ID NO:23 = HPPD SEQ ID NO:23 (Avena sativa, UniProt A0ACD5V6K6, A242W/DEL109-109); assay: biochemical; format: binding; conditions: for koff: read-out: koff (k1)
Sequence of HPPD SEQ ID NO:23 (A0ACD5V6K6 entry or part of it DEL109-109/A242W): as the sequence (A0ACD5V6K6 entry or part of it DEL109-109/I285T) above, with A241W, T284I counted along it
Description: as §1, §2, §3, §4, §5, §6

HPPD SEQ ID NO:22 = HPPD SEQ ID NO:22 (Avena sativa, UniProt A0ACD5V6K6, DEL109-109/L256M); assay: biochemical; format: binding; conditions: for koff: read-out: koff (k1)
Sequence of HPPD SEQ ID NO:22 (A0ACD5V6K6 entry or part of it DEL109-109/L256M): as the sequence (A0ACD5V6K6 entry or part of it DEL109-109/I285T) above, with L255M, T284I counted along it
Description: as §1, §2, §3, §4, §5, §6

HPPD SEQ ID NO:24 = HPPD SEQ ID NO:24 (Avena sativa, UniProt A0ACD5V6K6, DEL109-109/L359M); assay: biochemical; format: binding; conditions: for koff: read-out: koff (k1); for kon: read-out: kon (k2)
Sequence of HPPD SEQ ID NO:24 (A0ACD5V6K6 entry or part of it DEL109-109/L359M): as the sequence (A0ACD5V6K6 entry or part of it DEL109-109/I285T) above, with T284I, L358M counted along it
Description: as §1, §2, §3, §4, §5, §6

HPPD SEQ ID NO:15 = HPPD SEQ ID NO:15 (Avena sativa, UniProt A0ACD5V6K6, DEL109-109/Q298A); assay: biochemical; format: binding; conditions: for koff: read-out: koff (k1)
Sequence of HPPD SEQ ID NO:15 (A0ACD5V6K6 entry or part of it DEL109-109/Q298A): as the sequence (A0ACD5V6K6 entry or part of it DEL109-109/I285T) above, with T284I, Q297A counted along it
Description: as §1, §2, §3, §4, §5, §6

HPPD SEQ ID NO:21 = HPPD SEQ ID NO:21 (Avena sativa, UniProt A0ACD5V6K6, DEL109-109/I285V); assay: biochemical; format: binding; conditions: for koff: read-out: koff (k1)
Sequence of HPPD SEQ ID NO:21 (A0ACD5V6K6 entry or part of it DEL109-109/I285V): as the sequence (A0ACD5V6K6 entry or part of it DEL109-109/I285T) above, with T284V counted along it
Description: as §1, §2, §3, §4, §5, §6

[1] = catalytic activity and herbicide resistance of mutants of SEQ ID NO:14 in extracts; format: biochemical, Avena sativa
Excerpt: These further mutations can all be optionally combined with the resistance conferring mutations to produce catalytically active variants of HPPD herbicide resistant enzymes of the current invention.

[2] = Km and kcat of expressed HPPDs (HPLC/UV quantitation of homogentisate); format: biochemical, Avena sativa; conditions: for V217I, L271I, L271V, V258M, A326R estimated from initial rates in cell extracts, pH 7.0, 25° C., 120 μM HPP
Description: The assay solution was transferred to Chromacol 03-CVG HPLC vials, sealed and the amount of homogentisate formed in a 40 μl aliquot determined by injection onto a reverse phase Aqua C18 5μ 75×4.6 mm HPLC column running 5.5% acetonitrile 0.1% TFA (Buffer A) at 1.5 ml/min. The column was eluted at 1.5 ml/minute using a 2 minute wash in buffer A, followed by a 2 minute wash in a 30/70 mixture of buffer A and 100% Acetonitrile, and a further 3.5 minute wash in buffer A. The elution of homogentisate was monitored by UV at 292 nm and the amount formed in each reaction quantified by comparison with a standard calibration curve.
Km and Vmax values were determined (for example FIG. 1) using a non linear least squares fit using Grafit 4™ software (Erithacus Software, Middlesex, UK). Kcat values were determined by dividing the maximum rate, Vmax expressed in nmol/second by the number of nmoles of HPPD enzyme (based on the concentration determined by active-site titration).
Experiments were carried out as described for Table 4. ‘Sulc’ denotes sulcotrione and ‘nd’ means ‘no data’. For V217I, L271I, L271V, V258M and A326R, the relative values of kcat were estimated from comparisons of the initial rates in cell extracts of similarly prepared and expressed HPPDs in conventional enzyme activity assays at pH 7.0, 25° C. and at a substrate concentration of 120 μM HPP.

[3] = 25° C., direct, radiochemical method, average and individual experiments, read-out: Off rate k1
[4] = 25° C., direct, radiochemical method, average and individual experiments, read-out: On rate k2
[5] = HPPD variant SEQ ID# 14, 25° C.
[6] = estimated from on and off rates, 25° C.

CS(=O)(=O)c1cc(C(F)(F)F)ccc1C(=O)C(C#N)C(=O)C1CC1 (stereo not shown) [Structure D]
koff (HPPD SEQ ID NO:18): 3.96e-05 s⁻¹ | Off rate k1 (HPPD SEQ ID NO:14; 25° C., direct, radiochemical method, average and individual experiments): 4.17e-05 s⁻¹ and 3.75e-05 s⁻¹ | koff (HPPD SEQ ID NO:14; [3]): 3.96e-05 s⁻¹ | kon (HPPD SEQ ID NO:14; [4]): 32000 M⁻¹ s⁻¹ | kon (HPPD SEQ ID NO:14; 25° C., enzyme activity-based method, read-out: On rate, activity-based method): 32000 M⁻¹ s⁻¹ | Kd/Km ratio (HPPD SEQ ID NO:14): 0.00023 | Kd (HPPD SEQ ID NO:14; [5]): 1.2 nM | Kd (HPPD SEQ ID NO:14; [6]): 1.23 nM | koff (HPPD SEQ ID NO:14; read-out: koff (k1)): 3.96e-05 s⁻¹ | kon (HPPD SEQ ID NO:14; read-out: kon (k2)): 32000 M⁻¹ s⁻¹ | koff (HPPD SEQ ID NO:23): 2.37e-05 s⁻¹ | koff (HPPD SEQ ID NO:22): 2.37e-05 s⁻¹ | Kd (HPPD SEQ ID NO:24): 2.9 nM | koff (HPPD SEQ ID NO:24): 9.18e-05 s⁻¹ | kon (HPPD SEQ ID NO:24): 32000 M⁻¹ s⁻¹ | koff (HPPD SEQ ID NO:15): 2.37e-05 s⁻¹ | koff (HPPD SEQ ID NO:21): 3.96e-05 s⁻¹

CCOc1c(S(C)(=O)=O)ccc(C(=O)C2C(=O)CC(C)CC2=O)c1Cl (stereo not shown) [Structure A]
Kd (HPPD SEQ ID NO:18): 0.4 nM | koff (HPPD SEQ ID NO:18): 1.67e-05 s⁻¹ | kon (HPPD SEQ ID NO:18; read-out: kon (k2)): 42000 M⁻¹ s⁻¹ | koff (HPPD SEQ ID NO:14; [3]): 1.67e-05 s⁻¹ | kon (HPPD SEQ ID NO:14; [4]): 85000 M⁻¹ s⁻¹ | Kd/Km ratio (HPPD SEQ ID NO:14): 0.000036 | Kd (HPPD SEQ ID NO:14; [5]): 0.2 nM | Kd (HPPD SEQ ID NO:14; [6]): 0.196 nM | koff (HPPD SEQ ID NO:14; read-out: koff (k1)): 1.67e-05 s⁻¹ | kon (HPPD SEQ ID NO:14; read-out: kon (k2)): 85000 M⁻¹ s⁻¹ | Kd (HPPD SEQ ID NO:23): 0.33 nM | koff (HPPD SEQ ID NO:23): 2.83e-05 s⁻¹ | kon (HPPD SEQ ID NO:23; read-out: kon (k2)): 85000 M⁻¹ s⁻¹ | Kd (HPPD SEQ ID NO:22): 0.13 nM | koff (HPPD SEQ ID NO:22): 1.08e-05 s⁻¹ | kon (HPPD SEQ ID NO:22; read-out: kon (k2)): 85000 M⁻¹ s⁻¹ | Kd (HPPD SEQ ID NO:24): 0.27 nM | koff (HPPD SEQ ID NO:24): 2.3e-05 s⁻¹ | kon (HPPD SEQ ID NO:24): 85000 M⁻¹ s⁻¹ | Kd (HPPD SEQ ID NO:15): 0.95 nM | koff (HPPD SEQ ID NO:15): 3.33e-05 s⁻¹ | kon (HPPD SEQ ID NO:15; read-out: kon (k2)): 35000 M⁻¹ s⁻¹ | Kd (HPPD SEQ ID NO:21): 0.2 nM | koff (HPPD SEQ ID NO:21): 1.67e-05 s⁻¹ | kon (HPPD SEQ ID NO:21; read-out: kon (k2)): 85000 M⁻¹ s⁻¹

B1: T372S: T372S mutant of SEQ ID NO:14 (protein)
chain: MPPTPATATGAAAAAVTPEHAARSFPRVVRVNPRSDRFPVLSFHHVELWCADAASAAGRFSFALGAPLAARSDLSTGNSAHASLLLRSGALAFLFTAPYAPPPQEAATAATASIPSFSADAARTFAAAHGLAVRSVGVRVADAAEAFRVSVAGGARPAFAPADLGHGFGLAEVELYGDVVLRFVSYPDETDLPFLPGFERVSSPGAVDYGLTRFDHVVGNVPEMAPVIDYMKGFLGFHEFAEFTAEDVGTTESGLNSVVLANNSEAVLLPLNEPVHGTKRRSQIQTYLEYHGGPGVQHIALASNDVLRTLREMRARTPMGGFEFMAPPQAKYYEGVRRIAGDVLSEEQIKECQELGVLVDRDDQGVLLQIFSKPVGDRPTFFLEMIQRIGCMEKDEVGQEYQKGGCGGFGKGNFSELFKSIEDYEKSLEVKQSVVAQKS
modifications: mutant HPPD polypeptide
catalytic activity and resistance to sulcotrione relative to control, unmutated SEQ ID NO:14 [1]: neutral mutations

B2: V258M: V258M mutant of HPPD SEQ ID NO:14 (protein)
chain: B1 chain with V258M, S372T
modifications: mutant HPPD polypeptide
catalytic activity and resistance to sulcotrione relative to control, unmutated SEQ ID NO:14 [1]: neutral mutations | Rate: kcat relative to non-mutated HPPD SEQ ID NO:14 [2]: 1

B3: V258I: V258I mutant of SEQ ID NO:14 (protein)
chain: B1 chain with V258I, S372T
modifications: mutant HPPD polypeptide
catalytic activity and resistance to sulcotrione relative to control, unmutated SEQ ID NO:14 [1]: neutral mutations

B4: E416Q: E416Q mutant of SEQ ID NO:14 (protein)
chain: B1 chain with S372T, E416Q
modifications: mutant HPPD polypeptide
catalytic activity and resistance to sulcotrione relative to control, unmutated SEQ ID NO:14 [1]: neutral mutations

B5: G254S: G254S mutant of SEQ ID NO:14 (protein)
chain: B1 chain with G254S, S372T
modifications: mutant HPPD polypeptide
catalytic activity and resistance to sulcotrione relative to control, unmutated SEQ ID NO:14 [1]: neutral mutations

B6: I299M: I299M mutant of SEQ ID NO:14 (protein)
chain: B1 chain with I299M, S372T
modifications: mutant HPPD polypeptide
catalytic activity and resistance to sulcotrione relative to control, unmutated SEQ ID NO:14 [1]: neutral mutations

B7: G254A: G254A mutant of SEQ ID NO:14 (protein)
chain: B1 chain with G254A, S372T
modifications: mutant HPPD polypeptide
catalytic activity and resistance to sulcotrione relative to control, unmutated SEQ ID NO:14 [1]: neutral mutations

B8: V258K: V258K mutant of SEQ ID NO:14 (protein)
chain: B1 chain with V258K, S372T
modifications: mutant HPPD polypeptide
catalytic activity and resistance to sulcotrione relative to control, unmutated SEQ ID NO:14 [1]: neutral mutations

B9: V258A: V258A mutant of SEQ ID NO:14 (protein)
chain: B1 chain with V258A, S372T
modifications: mutant HPPD polypeptide
catalytic activity and resistance to sulcotrione relative to control, unmutated SEQ ID NO:14 [1]: neutral mutations
